We go through 8 molecules from patent US9669000B2, “Pharmaceutical compositions comprising lignans and their derivatives for treating hyperplastic diseases” (Universität Innsbruck, priority 2008, dated 2017).

Read-outs that look alike come from different tables or passages of the source. Some results are limits rather than exact numbers.

Series [1] has as its system human vascular smooth muscle cells (SMCs). The series can be described thus: XTT cell proliferation assay, smooth muscle cells. Type of series: cell-based. The following applies: for IC50: XTT assay after 72 h, mean of three independent experiments, read-out: IC50, SMC proliferation-inhibitory activity. The text has this:
Human umbilical vein endothelial cells (HUVECs) were isolated from umbilical cords (kindly donated by the Gynecology and Obstetrics Department, Innsbruck Medical University) by enzymatic detachment using collagenase, as previously described; see Bernhard, FASEB J 17(15), 2302-4 (2003). Human umbilical vein smooth muscle cells (SMCs) were isolated from the same umbilical cords according to Chamley-Campbell, Physiol Rev 59(1), 1-61 (1979). SMCs were routinely passaged in 0.2% gelatine-coated (Sigma, Steinheim, Germany) polystyrene culture flasks (Becton Dickinson, Meylan Cedex, France) in Medium 231 (Cascade Biologics, Paisley, UK). The isolation and analysis of human umbilical cord ECs and SMCs has been approved by the Ethics Committee of the Innsbruck Medical University.
Cell proliferation was measured by the XTT cell proliferation assay (Biomol, Hamburg, Germany) as described by the manufacturer. The XTT assay is based on the ability of metabolic active cells to reduce the tetrazolium salt XTT to orange coloured compounds of formazan. The dye formed is water soluble and the dye intensity can be read at a given wavelength with a spectrophotometer. The intensity of the dye is proportional to the number of metabolic active cells. In addition to the XTT assay all proliferation-experiments were also evaluated by counting cells in a coulter counter.
As described above (Example 1) cell proliferation was measured by the XTT cell proliferation assay (Biomol, Hamburg, Germany) as described by the manufacturer. The XTT assay is based on the ability of metabolic active cells to reduce the tetrazolium salt XTT to orange coloured compounds of formazan. The dye formed is water soluble and the dye intensity can be read at a given wavelength with a spectrophotometer. The intensity of the dye is proportional to the number of metabolic active cells.
In general terms: Tetrazolium assays rely on reduction of a dye to a coloured formazan, in cell work by metabolically active cells.

Series [2] concerns SMCs. The following applies: associated with upregulation of p21/WAF1; cited from earlier work.
In series [3] the test system is intimal hyperplasia after balloon injury. Conditions: in vivo; cited from earlier work.
Series [4] relates to SMCs. Conditions: caspase-dependent manner; cited from earlier work.
In series [5] the test system is VCAM-1. Conditions: ECs; cited from earlier work.
A further series concerns human saphenous veins. The experiment in a line: Human saphenous vein organ culture model of intimal hyperplasia. The following applies: added freshly every second day over 2 weeks. The protocol: (§1) Following fixation in 4% paraformaldehyde and dehydration of tissues from organ culture and mouse experimentation, tissues were embedded in paraffin (venae cavae from the in vivo experiments were embedded into mouse liver prior to fixation) and sections were prepared. Immunohistochemistry was performed with the Accustain Elastica Stain (HT25) kit (Sigma-Aldrich, USA) or the En Vision+System-HRP (DAB) (DakoCytomation, Denmark) according to the manufacturers instructions. Primary antibodies used were anti-p27/KIP-1 antibody (clone 57; BD Transduction Laboratories), and anti-CD31/PECAM-1 antibody (clone JC70A, Dako Cytomation). Image analyses were performed using the Image J software of the National Institute of Health (USA).

Series [6] deals with human vascular smooth muscle cells (SMCs). The experiment in a line: Cell death by AnnexinV-propidium iodide method and FACS, SMCs. Type of series: cell-based. Conditions: after 48 hour. The protocol: (§2) In order to investigate the effect of leoligin on the cellular level, isolated primary human vascular smooth muscle cells (SMCs) were incubated with the indicated concentrations of leoligin for the indicated times. […] Values shown are mean values from a representative experiment performed in triplicates. […] Values shown are mean values from three independent experiments+/−S.D. The histogram blots in FIG. 3C show the results from a DNA content analysis of control-treated or leoligin-treated SMCs after 24 hours of incubation (upper row, left histogram . . . solvent control; upper row, right histogram . . . leoligin).
(§3) For detection and/or quantification of cell death, forward/sideward light scattering analysis, the AnnexinV-propidium iodide method, and staining of nuclear DNA content (cell cycle analyses) were used as described; see Bernhard FASEB J 13(14), 1991-2001 (1999).

Series [7] has the same test system. The experiment in a line: Nuclear DNA content (cell cycle) analysis, SMCs. Type of series: cell-based. Conditions: 24 hours of incubation. The protocol: In order to investigate the effect of leoligin on the cellular level, isolated primary human vascular smooth muscle cells (SMCs) were incubated with the indicated concentrations of leoligin for the indicated times. […] Values shown are mean values from a representative experiment performed in triplicates.
as §3

In the next series the test system is p27/KIP. The series can be described thus: Western blot of p27/KIP in SMCs. Type of series: cell-based, human. Conditions: SMCs incubated 24 hours; shift from 27 kD to 58 kD signal. The protocol:
as §2
Western blotting was performed as previously described; see Bernhard, Cell Death Differ 8(10), 1014-21 (2001). Primary antibodies used were anti-p27/KIP-1 antibody (clone 57; BD Transduction Laboratories).
(Immunoblotting shows a protein as a band on a membrane.)

Series [8] deals with primary human vascular endothelial cells (ECs). The series can be described thus: XTT cell proliferation assay, endothelial cells. Type of series: cell-based. The source says: (§4) Values shown are mean values from a representative experiment performed in triplicates.
The test system is the same in series [9]. The experiment in a line: Cell viability by annexin V/propidium iodide method and FACS, ECs. Type of series: cell-based. The following applies: 48 hours. The protocol:
(§5) Primary human vascular endothelial cells (ECs) were incubated with the indicated concentrations of leoligin for the indicated times. […] Values shown are mean values from a representative experiment performed in triplicates. […] Values shown are mean values from three independent experiments+/−S.D. The impact of leoligin on TNFalpha-induced surface expression of VCAM-1, ICAM-1, and E-selectin (E-Sel) is shown in the three diagrams in FIG. 4C. Data shown are mean fluorescence intensities (MFI) of representative experiments. […] After protein preparation, total cellular proteins were separated on polyacrylamide gels, gel were dried and analysed by exposure to x-ray films.
as §3

For series [10], the system named is VCAM-1. The experiment in a line: FACS analysis of TNFalpha-induced surface adhesion molecule expression on ECs. Type of series: cell-based, human.
Text: as §4

The test system of series [11] is primary human vascular endothelial cells (ECs). The experiment in a line: Metabolic protein labelling with 35S-methionine/cysteine in ECs. Type of series: cell-based. The protocol: as §5
Metabolic labelling with ^35S-methionine/cysteine was performed as previously described (Bernhard (2001), loc. cit.).

Series [12] concerns venous bypass graft intimal hyperplasia. The series can be described thus: Mouse model for vein graft disease (vena cava interposed into carotid artery). Type of series: in vivo. The protocol: Before wound closure after the transplantation, a peradventitial depot of 100 μl of 0.9% NaCl (control) or 100 μl of 100 μM leoligin in 0.9% NaCl were applied. After 4 weeks conduits were removed and subjected to morphometric analyses and to immunohistochemistry. FIG. 5B: the upper two images show a Elastica van Giesson stain of sections of the venous conduits. White arrows indicate neointimal thickness which was analysed by morphometry (see FIG. 5A). Central images display a staining for the endothelial cell CD31/PECAM-1 antigen (brown, black arrows) combined with a hematoxilin stain. […] The abbreviations “Lu” and “Li” stand for the full terms “lumen” and “liver”, respectively.
In the applied mouse model the vena cava of a donor mouse was interposed into the carotid artery of a recipient mouse. After transplantation and prior to wound closure a 100 μl depot of 0.9% NaCl (control group) or 100 μM leoligin in 0.9% NaCl (leoligin group) was placed around the adventitia of the vein graft in the recipient mouse. 4 weeks after the intervention mice were sacrificed and the interposed venae cavae were harvested for analyses. […] For details on the surgical procedure see Schachner, Eur J Cardiothorac Surg 30(3), 451-63 (2006); Schachner, Heart Surg Forum 9(1), E515-E517 (2006). Animal experiments were approved by the Commission for Animal Testing Affairs of the Austrian Ministry for Science and Research.
as §1

[13] abbreviates: 100 μl of 100 μM leoligin, 4 weeks.

Turning to `C/C=C(/C)C(=O)OC[C@H]1[C@@H](Cc2ccc(O)c(OC)c2)CO[C@@H]1c1cc(OC)c(OC)c(OC)c1` [5-methoxy-leoligin], the IC50 in series [1] (Homo sapiens) was 45.9 µM.
On the same count and under the same terms, then `COc1cc(C[C@H]2CO[C@H](c3ccc(O)c(OC)c3)[C@H]2CO)ccc1O` [lariciresinol, reference compound], with over 100 µM.
Regarding `C=CCc1ccc(O)c(-c2ccc(O)c(CC=C)c2)c1` [Honokiol, honokiol], in the series with SMCs [2], the “cell cycle in SMCs” value is “arrest in the G1 phase of the cell cycle”.
`COc1cc([C@@H]2c3cc4c(cc3[C@H](O)[C@H]3COC(=O)[C@@H]23)OCO4)cc(OC)c1OC` [picropodophyllin]: the “intimal hyperplasia after balloon injury” value in series [3] is recorded as “inhibits intimal hyperplasia after balloon injury in vivo”.
With `C=CCc1ccc(O)c(-c2cc(CC=C)ccc2O)c1` [Magnolol, magnolol], the “cell death in SMCs” value in the series with SMCs [4] is recorded as “induce cell death in SMCs”. For the same molecule, the “TNFalpha-mediated VCAM-1 expression” value with VCAM-1 [5] was “inhibit TNFalpha-mediated VCAM-1 expression”.
`C/C=C(/C)C(=O)OC[C@H]1[C@@H](Cc2ccc(OC)c(OC)c2)CO[C@@H]1c1ccc(OC)c(OC)c1` [leoligin]: the IC50 in [1] (Homo sapiens) amounted to 54.5 µM. Moreover, in series [1] (result in words), the “SMC proliferation (XTT assay, cell counting)” value is “significant SMC proliferation inhibitory effect”. For the same molecule, the “intimal hyperplasia of saphenous veins in organ culture” value in the series with human saphenous veins (5 μM leoligin, p=0.003) was “completely inhibited intimal hyperplasia”. The “pre-existing intimal hyperplasia of saphenous veins in organ culture” value in the series with human saphenous veins (50 μM leoligin, p<0.001) is “even reversed pre-existing intimal hyperplasia”. Further, the “cell death (apoptosis and necrosis) in SMCs” value in series [6] is listed as “only a marginal increase in cell death”. Moreover, in [7], the “cell cycle distribution (nuclear DNA content)” value is listed as “massive accumulation of cells in the G1-phase”. Moreover, in the series with p27/KIP, the “p27/KIP protein (Western blot)” value is “complete change in the appearance of p27/KIP protein”. Besides, the “proliferation of ECs” value in [8] is given as “inhibited the proliferation of ECs”. In addition, in [9], the “toxic or cell death-inducing effect on ECs” value is “no toxic or cell death-inducing effect”. Also, in the series with VCAM-1 [10], the “TNFalpha-mediated surface expression of VCAM-1” value was “inhibited TNFalpha-mediated surface expression of VCAM-1”. Further, in series [11], the “protein synthesis in ECs” value is listed as “does not block protein synthesis”. Also, in series [12] (setting [13]), the “endothelial layer (CD31 staining) of conduits” value is recorded as “intact” and the “neointimal thickness of vein grafts” value is on record as “significantly reduced neointimal thickness”. Also, in series [12] (four weeks after the application), the “p27/KIP staining of graft sections” value is “stained positive for p27/KIP”. Also, the “animals with no blood flow due to thromboses after 4 weeks” value in series [12] (of 7 animals per group (3 in control)) is reported as 2. In [12] (periadvential reservoir 100 μl of 100 μM leoligin in 0.9% NaCl, 4 weeks), the “intimal hyperplasia in vivo” value is listed as “potently inhibited intimal hyperplasia in vivo”.
As to `C/C=C(/C)C(=O)OC[C@H]1[C@@H](Cc2cc(OC)c(OC)c(OC)c2)CO[C@@H]1c1cc(OC)c(OC)c(OC)c1` [5,5′-dimethoxy-leoligin], the IC50 in series [1] (Homo sapiens) turned out to be 48.6 µM.
For the molecule `C/C=C(/C)C(=O)OC[C@H]1[C@@H](Cc2ccc(OC)c(OC)c2)CO[C@@H]1c1cc(OC)c(OC)c(OC)c1` [5-methoxy-leoligin], the IC50 in series [1] is 45.9 µM.
